Measurements taken from patent US12318402B2, “Composition for treating or preventing colitis by NAMPT metabolic regulation” (AJOU UNIVERSITY INDUSTRY-ACADEMIC COOPERATION FOUNDATION, priority 2021, dated 2025).

How the values were obtained:
[1] = tested on: Raw 264.7 cells; experiment: ROS measurement in Raw 264.7 cells upon LPS; format: cell-based; conditions: FIG. 10H
[2] = tested on: BMDM; experiment: NAD+ level measurement in BMDM; format: cell-based, mouse
Method: (§1) Bone marrow derived macrophages (hereinafter referred to as BMDM) were harvested, and according to the manufacturer's instructions, EnzyChrom NAD^+/NADHA assay Kit (Bioassay Systems, Hayward, CA, USA), Elite NADPH Assay Kit (eEnzyme, Gaithersburg, MD, USA) and Cell Titer-Glo® Luminescent Cell Viability assay (Promega, Madison, WI, USA) were used for analysis.
(§2) Since NAD^+ is an important cofactor in ATP production, ATP levels were measured during LPS treatment. […] However, the NADPH level in NAMPT-depleted macrophages was reduced by 21%.

[3] = tested on: BMDM; experiment: pHrodo green E. coli Bioparticles phagocytosis assay in BMDM; format: cell-based, mouse; conditions: for pHrodo intensity: BMDM of WT mice, FIG. 10B, 10D, 11B-11D
Method: (§3) pHrodo™ green-conjugated E. coli Bioparticles™ were diluted in serum medium, incubated for 30 minutes and washed twice with PBS. Cells were incubated for the time indicated in the manufacturer's instructions and analyzed using a FACS Canto II flow cytometer (BD) or fluorescence microscope (DFC3000G; Leica, Wetzlar, Germany).
(§4) Pulse and chase phagocytosis assays were performed using pHrodo green to compare phagocytic activity between macrophages of WT and KO mice. In FIG. 11A, there was an increase in the intensity of the green fluorescence signal in the BMDM of WT mice, indicating the gradual maturation and fusion of phagosomes containing pHrodo green with lysosomes.

[4] = tested on: BMDM; experiment: NADPH level measurement in macrophages (BMDM); format: cell-based, mouse
Method: as §1, §2

[5] = tested on: BMDM; experiment: M1/M2 macrophage polarization of BMDM (FACS, Western blot); format: cell-based, mouse
Method: The cell suspension of Example 4 was stained with various combinations of fluorochrome-conjugated antibodies on ice for 20 minutes under dark conditions, wherein the antibodies included anti-CD45 (30-F11), anti-CD1 lb (M1/70), anti-F4/80 (BM8), anti-Ly6G (1A8), anti-Ly6C (HK1.4), anti-MHC II (M5/114.15.2), anti-CD11c (N418), anti-CD206 (MMR) and anti-CD86 (GL-1) (all purchased from Biolegend, San Diego, CA, USA). Samples were obtained from the FACS Canto II Flow Cytometer (BD, Franklin Lakes, NJ, USA). Data were analyzed using FlowJo™ Software (BD).
Next, it was determined whether NAMPT is involved in the polarization of M1 and M2 macrophages.

[6] = tested on: RAW264.7 cells; experiment: pHrodo green phagocytosis assay in RAW264.7 cells; format: cell-based; conditions: FIG. 10C, 10D, 11D
Method: as §3, §4

[7] = mouse, in vivo
From the text: It was further elucidated whether there was any clear cytotoxic effect by NMN injection in mice.

[8] = tested on: DSS-induced colitis; experiment: DSS-induced colitis model in NAMPT KO mice with NMN administration; format: in vivo, mouse
From the text: Nampt^f/f mice (C57BL6), which have two loxP sites adjacent to exon 5, were crossed with LyzM-Cre mice (C57BL6) to specifically knock out (KO) NAMPT in myeloid cell lineages including macrophages (Nampt^f/fLyzMCre^+/− mice; hereinafter referred to as KO mice). KO mice (heterozygous) were used as mice knocked out of bone marrow-specific NAMPT, and Nampt^f/f mice (wild type; hereinafter referred to as WT mice) were used as controls. The mice were stored at the Ajou University Laboratory Animal Research Center and preserved according to the guidelines of the Institution's Animal Care and Use Committee, which approved all animal procedures (2020-0013).
Age- and gender-matched WT mice and KO mice were administered with 2.5% DSS (MP Biomedicals, Santa Ana, CA, USA) for 7 days and then allowed to recover for 7 days. Colitis severity was determined daily through a scoring system based on the sum of scores for the following parameters: weight loss (0 points=no weight loss/weight gain, 1=5 to 10% weight loss, 2=11 to 15% weight loss, 3=16 to 20% weight loss, and 4=21% or more weight loss); stool consistency (score of 0=normal and well formed, 2=very soft and not formed, and 4=loose stool); and hemorrhagic stool score (0=normal colored stool, 2=red colored stool, 4=bloody stool). The disease activity index (DAI) ranged from 0 to 12.
Histology was scored blindly using a semi-quantitative scoring system based on the sum of scores for the following parameters: presence of ulceration: 0=none, 1=present but very slight, 2=minimal, 3=moderate, 4=widespread; presence of inflammation: 0=none, 1=minimal, 2=mild, 3=moderate, 4=severe; degree of inflammation: 0=none, 1=mucosal, 2=mucosal+submucosal, 3=mucosal+submucosal+muscle penetration, 4=full thickness invasion. Immunohistochemistry was performed using rabbit anti-NAMPT (Bethyl Laboratories, TX, USA), rabbit anti-Ki-67 (Abcam, Cambridge, UK), rabbit anti-cleaved caspase 3 (Cell Signaling Technology), mouse anti-CD326 (EpCAM)-APC (Invitrogen) and mouse anti-F4/80 (Abcam) antibodies.
Apoptosis was assessed by the TUNEL assay using the Apoptag plus in situ apoptosis fluorescein detection kit (Merck) according to the manufacturer's instructions. TUNEL positive signals were corrected to total nuclear signals for each field. The phagocytic cells were stained using the Apoptag ISOL dual fluorescence apoptosis detection kit (Millipore) according to the manufacturer's instructions. The stained samples were then incubated overnight with mouse anti-F4/80 antibodies. Fluorescence images were obtained by a confocal microscope (A1R HD25, Nikon, Tokyo, Japan) and a slide scanner (Axioscan, Zeiss, Germany).

[9] = tested on: BMDMs; experiment: ROS measurement in LPS- and IFN-γ-activated BMDMs; format: cell-based, mouse; conditions: FIG. 13B
Method: BMDM or peritoneal macrophages were incubated with HBSS containing 5 μM CM-H2DCFDA (Invitrogen, Carlsbad, CA, USA) for 15 min at 37° C. To measure mitochondrial reactive oxygen species levels, cells were incubated with 5 μM MitoSOX (Invitrogen) for 15 minutes. FACS Canto II (BD) was used to monitor fluorescence levels.

[10] = NAMPT KO mice, 2.5% DSS, 500 mg/kg i.p.
[11] = macrophages of KO mice, NMN with/without 6AN, FIG. 12I

With `NC(=O)c1ccc[n+]([C@@H]2O[C@H](COP(=O)([O-])OP(=O)(O)OC[C@H]3O[C@@H](n4cnc5c(N)ncnc54)[C@H](O)[C@@H]3O)[C@@H](O)[C@H]2O)c1` [NAD^+, nicotinamide adenine dinucleotide] the “inhibitory effect of FK866 on ROS production” value ([1]; LPS, FK866, NAD+ co-treatment) was “recovered”.

In the case of `O=C(/C=C/c1cccnc1)NCCCCC1CCN(C(=O)c2ccccc2)CC1` [FK866], the “NAD+ levels” value ([2]; FIG. 12B) is reported as “significantly reduced”, the “NAD+ levels” value ([2]; LPS treatment) is reported as “further decrease” and the pHrodo intensity [3] is reported as “decreased”. For the same compound, the ROS production ([1]; response to LPS) was “partially inhibited”, the NADPH levels ([4]; in LPS treatment, FIG. 12G) was “further decrease in NADPH levels” and the “polarization of M1 and M2 macrophages” value ([5]; BMDM treated with LPS/IFN-γ or IL-4, FACS, FIG. 7A, 7B) was “did not result in polarization of M1 and M2 macrophages”. The “expression of M1 and M2 macrophage-specific markers” value ([5]; Western blot, FIG. 7D) was “did not affect” and the pHrodo intensity [6] was “reduced pHrodo intensity”.

In the case of `NC(=O)c1ccc[n+]([C@@H]2O[C@H](COP(=O)([O-])O)[C@@H](O)[C@H]2O)c1` [NMN, nicotinamide mononucleotide], the “NAD+ levels” value ([2]; after NAMPT knock out or FK866 treatment, FIG. 12B) is reported as “restored the phenotype”, the “abnormalities in the colon, liver and spleen at the microscopic level” value [7] is reported as “no abnormalities” and the “serum ALT level” value [7] is reported as “similar”. The “serum AST level” value [7] was “similar”, the pHrodo fluorescence intensity ([3]; BMDM of KO mice) was “restored fluorescence intensity” and the survival ([8]; NAMPT KO mice, 2.5% DSS, 500 mg/kg NMN i.p. 3 times a week, 8 out of 12) was 67%. The DAI [8, 10] was “restored”, the weight loss [8, 10] was “restored” and the “F4/80+ macrophage population” value ([8]; colon tissue, FIG. 14F) was “decrease”. The “Ki-67+ cells” value ([8]; colon tissue, FIG. 14F) was “increased”, the “positive signals of TUNEL” value ([8]; colon tissue, FIG. 14F) was “decreased” and the “positive signals of cleaved caspase 3” value ([8]; colon tissue, FIG. 14F) was “decreased”. For the same compound, the NADPH levels ([4]; in LPS treatment, FIG. 12G) was “increased NADPH levels”, the NADPH levels [4, 11] was “restored NADPH levels” and the NADPH levels ([4]; macrophages of KO mice, FIG. 12D, 12E) was “increased NADPH levels”.

For `NC(=O)c1ccc(N)nc1` [6AN, 6-aminonicotinamide], the NADPH levels ([4]; 6AN during LPS challenge, FIG. 12J) was “further reduced NADPH levels”, the NADPH levels [4, 11] was “blocked” and the NADPH levels ([4]; macrophages of WT mice, FIG. 12H) was “reduced NADPH levels in a dose-dependent manner”. For the same compound, the ROS levels [9] was “decrease in ROS levels”.

In the case of `CO/C1=C\C(C)=C\[C@@H](C)[C@@H](O)[C@@H](C)C/C(C)=C/C=C/[C@H](OC)[C@@H]([C@@H](C)[C@@H](O)[C@H](C)[C@@]2(O)C[C@@H](O)[C@H](C)[C@@H](C(C)C)O2)OC1=O` [Baf A1, bafilomycin A1], the pHrodo intensity [3] is reported as “reduced the fluorescence intensity” and the pHrodo intensity [6] is reported as “reduced the fluorescence intensity”.
